Reference: US20160051665A1, “INDUCTION OF IMMUNE RESPONSE” (priority 2010, published 2016)

Legend:
[1] = tested on: woodchuck hepatitis virus (WHV); assay: serum WHV DNA by dot blot hybridization in chronic WHV carrier woodchucks; assay type: in vivo; conditions: for WHV DNA, Av(range): serum
Experimental: All experimental procedures involving woodchucks were performed under protocols approved by the Cornell University Institutional Animal Care and Use Committee. Woodchucks were born to WHV-negative females in environmentally controlled laboratory animal facilities and inoculated at 3 days of age with 5 million infectious doses of a standardized WHV inoculum (23). Woodchucks were selected as chronic WHV carriers based on persistent detection of WHV surface antigen (WHsAg) and WHV DNA in serum prior to treatments. All animals were free of HCC at the beginning of the study as determined by hepatic ultrasound examination and normal serum activity of γ-glutamyl-transferase (GGT).
(§1) Twenty adult chronically infected woodchucks were stratified by age, sex, body weight, serum viral load, and serum GGT activity into four treatment groups of five animals each. Drug was administered orally at 100 mg/kg (in sterile water), chosen after an initial dose finding trial. […] The subunit vaccine consisted of 22-nm WHsAg particles, purified by zonal ultracentrifugation from serum of WHV7P1-infected WHV carriers (24), inactivated with formalin, and adsorbed onto alum. Prior to alum adsorption, vaccine was tested in naïve, WHV-susceptible animals and no residual virus was detected. Purified WHsAg was not pretreated with enzymes that remove preS sequences.
Blood samples were obtained for WHV DNA analysis and serological testing while animals were under general anesthesia (ketamine 50 mg/kg and xylazine 5 mg/kg intramuscularly). Samples were taken prior to drug administration on the first day of treatment and at the indicated time points.
Serum WHV DNA was measured quantitatively by dot blot hybridization (assay sensitivity, ≧1.0×10^7 WHV genome equivalents per ml [WHVge/ml]) (25). Serum WHsAg, antibodies to WHV core antigen (anti-WHc), and WHV surface antigen (anti-WHs) were determined with WHV-specific enzyme immunoassays (26). Serum biochemical measurements included serum GGT, alkaline phosphatase (ALP), and marker of hepatocellular injury alanine aminotransferase (ALT), aspartate aminotransferase (AST), and sorbitol dehydrogenase (SDH) (25).
Woodchucks chronically infected with WHV experienced significant immunological responses to envelope proteins following immunization with WHsAg-containing vaccines, especially in the context of low viral and antigen loads following treatment with an effective antiviral agent, 1-(2-fluoro-5-methyl-beta-L-arabinofuranosyl)-uracil (L-FMAU) (29, 35). Since BuCas treatment might be expected to reduce the amount of MHBs in the circulation and/or alter its immunological profile, the response to BuCas administration along with WHsAg vaccine was investigated. […] Animals were scored as positive if cells proliferated above the cut-off value of 2: 3.1. […]

glucosidases = assay: glycan analysis of serum: tri-glucosylated glycans (Glu3); assay type: in vivo, woodchuck
Experimental: Sample preparation for glycan analysis was performed essentially as described (27). HPLC separation was performed using the Waters Alliance HPLC system with a Waters fluorescence detector, and quantified using the Millenium Chromatography Manager (Waters Corporation, Milford, Mass.). Tri-glucosylated structures were identified by comparison to known standards (27, 28).
In vivo, levels of circulating glycoproteins with N-glycans bearing three terminal glucose residues reflect the extent of glucosidase inhibition (11). […] Note that BuCas-treated animals that were negative for tri-glucosylated glycans at the 10-week time point were positive at one or more other time points (data not shown). No tri-glucosylated glycans were detected in any drug-naïve animals (Table 2).

[2] = serum drug level after single oral dose in woodchucks; assay type: in vivo; conditions: woodchuck, single oral dose of 100 mg/kg
Experimental: as §1

glucosidase I = target: T1, glucosidase I (Homo sapiens, UniProt Q13724); conditions: cited from earlier work
T1 sequence (Q13724 1-837): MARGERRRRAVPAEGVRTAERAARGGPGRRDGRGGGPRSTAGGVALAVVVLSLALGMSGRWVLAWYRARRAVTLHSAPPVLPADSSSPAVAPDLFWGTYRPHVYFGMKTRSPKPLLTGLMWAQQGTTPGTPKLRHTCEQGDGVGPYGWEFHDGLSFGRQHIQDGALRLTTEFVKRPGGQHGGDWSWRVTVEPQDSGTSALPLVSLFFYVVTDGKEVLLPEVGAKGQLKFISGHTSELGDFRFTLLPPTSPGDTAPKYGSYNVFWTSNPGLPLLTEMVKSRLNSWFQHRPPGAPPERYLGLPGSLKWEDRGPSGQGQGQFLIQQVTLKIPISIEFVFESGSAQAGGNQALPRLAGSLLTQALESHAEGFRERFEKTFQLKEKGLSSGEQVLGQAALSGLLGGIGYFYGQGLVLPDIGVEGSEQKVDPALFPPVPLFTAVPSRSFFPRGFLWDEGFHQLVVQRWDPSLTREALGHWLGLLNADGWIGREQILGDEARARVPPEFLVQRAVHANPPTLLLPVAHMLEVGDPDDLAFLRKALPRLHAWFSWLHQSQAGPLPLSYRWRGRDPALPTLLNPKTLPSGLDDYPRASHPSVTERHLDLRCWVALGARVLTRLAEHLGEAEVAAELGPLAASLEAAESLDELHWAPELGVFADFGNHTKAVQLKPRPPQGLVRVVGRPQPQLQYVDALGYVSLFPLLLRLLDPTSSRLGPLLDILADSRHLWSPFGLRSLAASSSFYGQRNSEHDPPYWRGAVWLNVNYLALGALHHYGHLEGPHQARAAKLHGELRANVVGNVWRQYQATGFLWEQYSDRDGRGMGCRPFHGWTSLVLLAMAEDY

With `CCCC(=O)O[C@H]1CN2CC[C@H](O)[C@@H]2[C@@H](O)[C@H]1O` [BuCas, 6-O-butanoyl castanospermine] the “viremia, in words” value ([1]; chronic WHV carrier woodchucks, all times tested) was “not altered significantly”, the “antiviral response in woodchucks” value ([1]; drug treated chronic WHV carrier woodchucks) was “no detectable antiviral response” and the “WHV DNA, Av(range)” value ([1]; week 0 (baseline), chronic WHV carrier woodchucks) was 2.7(.4-7.0) genome equivalents (×10^10). The “WHV DNA, Av(range)” value ([1]; week 10 (4 weeks after first vaccination), UD = <E07 GE, detection limit of dot blot hybridization) was 1.9(.9-4.8) genome equivalents (×10^10), the “glycan processing (tri-glucosylated glycans in sera), in words” value (glucosidases; sera of treated woodchucks) was “impaired glycan processing” and the “Glu3, % (tri-glucosylated glycans in serum)” value (glucosidases; week 10) was “.49 (0-.90) %”. For the same molecule, the “Cmax, range” value [2] was 5000 to 12100 ng/mL, the “average observed Cmax” value [2] was 7700 ng/mL and the “potency as inhibitor of glucosidase I relative to deoxynojirimycin” value (glucosidase I) was “more potent inhibitors of glucosidase I than deoxynojirimycin”.
